Test results as given in PubChem BioAssay AID179 (DTP/NCI, 2004).
Activity calls are given as the source filed them.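 Rule for the calls: active = compounds giving half or more protection of infected cells from virus-caused growth loss, again on retest; inactive = the rest.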 Where a SMILES comes first, the peptide text is derived from it.

Test system: CEM cells HIV-1 protection, formazan growth assay
Experiment: NCI AIDS Antiviral Assay
Conditions: for IC50: measured here: growth of uninfected CEM cells
Method in brief: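 Protection of CEM cells against HIV-1 was scored from cell growth (soluble formazan) across five concentrations, with parallel uninfected cells. Lack of protection may reflect toxicity.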

| Structure (SMILES) | EC50 [µM] | IC50 [µM] | outcome |
| --- | --- | --- | --- |
| CCc1cccc(C(C)C)c1NC(=O)C(=O)CC(=O)c1sc(Nc2c(CC)cccc2C(C)(C)C)nc1C | > 200 | 60.3 | – |
| COC(=O)C(=O)C(C(=O)OC)C(=O)C(=O)Nc1cc(Cl)c(C)cc1S(=O)(=O)O (stereo unspecified) | > 575 | > 575 | – |
| O=C(OCCN=c1c2ccccc2ccc2ccccc12)c1cc([N+](=O)[O-])cc([N+](=O)[O-])c1 | > 200 | 158 | – |
| Nc1ncc(N)c(N)n1 | > 200 | 132 | – |
| CCOC(=O)N1CCNCCN(C(=O)OCC)CCNCC1 | > 200 | > 200 | – |
| COc1cc(-c2oc3c(Cl)cc(Cl)cc3c(=O)c2O)cc(OC)c1OC | > 200 | 38 | – |
| Cc1noc(C)c1-n1nc2ccc3nonc3c2n1 | > 200 | > 200 | – |
| Cc1nc2ccccc2cc1C[N+]12CN3CN(CN(C3)C1)C2 | – | – | inactive |
| CC1(C)C2CCC1(CS(=O)O)C(=O)C2.[Ag] (stereo unspecified) | > 398 | 7.94 | – |
| COc1cc2c(cc1OC)C1(c3ccc(Cl)cc3)ON=C(c3ccccc3)N1CS2 (stereo unspecified) | > 6.17 | > 6.17 | – |
| CCOC(=O)C1=c2[nH]c3cccc4cccc(c43)n2C(=O)CC1 | > 200 | 12.3 | – |
| COc1ccc(-c2nc(Nc3ccccc3)sc2Cc2sc(Nc3ccccc3)nc2-c2ccc(OC)cc2)cc1 | – | – | inactive |
| Cc1c(/C=N/NC(=S)N2CCCCC2)c(=O)n(-c2ccccc2)n1C | > 200 | 28.8 | – |
| O=C(O)c1cc2cccc(O)c2cc1O | > 200 | > 200 | – |
| CC(NC(=O)C(CCCCN)NC(=O)C(N)CC(=O)O)C(=O)NC(CO)C(=O)NC(Cc1ccc(O)cc1)C(=O)NC(CO)C(=O)NC(C(=O)NC(CC(N)=O)C(=O)NC(Cc1cnc[nH]1)C(=O)O)C(C)O (stereo unspecified) (H-DKASYSTNH-OH; configuration not given here) | > 49 | > 49 | – |
| OCC1C(CO)C2CCC1C2(c1ccccc1)c1ccccc1 (stereo unspecified) | > 95.5 | 60.3 | – |
| CCN(CC)c1ccc(C(=C2C=CC(=[N+](CC)CC)C=C2)c2ccc(S(=O)(=O)O)cc2S(=O)(=O)[O-])cc1 | – | – | inactive |
| Cc1cn([C@H]2C[C@@H]3[C@@H](COC(C)(C[Se]c4ccccc4)N3O)O2)c(=O)[nH]c1=O (stereo partly specified) | 50.1 | 162 | – |
| Cc1c(/C=N/NC(=O)c2cc(Br)cc(Br)c2O)c(=O)n(-c2ccccc2)n1C | > 200 | 123 | – |
| NS(=O)(=O)c1ccc(N2C(=O)C(=O)N(c3ccccc3)C2=S)cc1 | > 200 | 19.5 | – |
| O=C(O)c1c2c(cc3c1CC(Cc1ccccc1)C3=O)CCC2 (stereo unspecified) | > 200 | 64.6 | – |
| O=C(CCl)Nc1ccc(C(=O)N/N=C/c2ccc(Cl)cc2)cc1 | > 200 | 2.75 | – |
| CC(C)(C)[Si](C)(C)OCC1OC(n2ccc(=O)[nH]c2=O)C(O[Si](C)(C)C(C)(C)C)[C@@]12N[C@H](C(N)=O)CS2 (stereo partly specified) | > 200 | 8.91 | – |

| Structure (SMILES) | EC50 [µM] | IC50 [µM] | outcome |
| --- | --- | --- | --- |
| [C-]#[N+]CS(=O)(=O)c1ccc(C)cc1 | > 479 | > 479 | – |
| Cc1cn([C@H]2CS[C@@H](CO)CO2)c(=O)[nH]c1=O | – | – | inactive |
| Cc1ccc(/C([O-])=C(\C(=S)Nc2cccc(C)c2)[n+]2ccccc2)cc1 | – | – | inactive |
| C[C@@H](COCP(=O)(O)O)n1cnc2c(N)ncnc21 | > 200 | > 200 | – |
| COc1ccc(OC)c(NC2=NCCO2)c1 | > 200 | 107 | – |
| CCOC(=O)N(c1ccccc1)c1cc(=O)n2ccccc2n1 | > 200 | > 200 | – |
| Nc1ccc(Cc2c(N)[nH]c(=O)[nH]c2=O)cc1 | > 200 | > 200 | – |
| O=C1OC(c2ccccc2)=N/C1=C\c1ccccc1O | > 26.9 | > 26.9 | – |
| CCOC(=O)c1c(C)[nH]c(C(=O)C(N=O)C(=O)OCC)c1C (stereo unspecified) | > 200 | > 200 | – |
| O=C1CN2C=CC=CC2=NN1 | > 603 | 407 | – |
| O=S1(=O)CCc2ccccc2C(Br)C1 (stereo unspecified) | > 200 | > 200 | – |
| CC1(C)C2CCC(CN)(C2)C1N (stereo unspecified) | > 200 | > 200 | – |
| Brc1ccc2c(c1)C1(c3cc(Br)ccc3-2)c2cc(Br)ccc2-c2ccc(Br)cc21 | > 40.7 | > 40.7 | – |
| CCN(CC)/C(Sc1ccccc1)=C(\C(Cl)=C(Cl)Cl)[N+](=O)[O-] | > 200 | 12.3 | – |
| C=C(CN(C)C)C1(c2ccccc2)CC2(CCCC2)C(=O)O1 (stereo unspecified) | > 200 | 38 | – |
| CCCCCCCCNC(=O)C1=C(C)NC(C)=C(C(=O)NCCCCCCCC)C1 | > 200 | 97.7 | – |
| CC(C)OC(=S)Nc1ccc(Cl)c(/C=N/OC(C)(C)C)c1 | > 24 | 23.4 | – |
| Nc1ncnc2c1ncn2[C@H]1[C@H](CO)[C@@H](CO)C1(F)F | > 200 | 155 | – |
| COc1cc(C2c3cc4c(cc3OC(NCCO)C2C)OCO4)cc(OC)c1O (stereo unspecified) | > 200 | 3.16 | – |
| O=C1Nc2cnc(Cl)nc2Nc2ccc(Cl)cc21 | 123 | > 200 | – |
| Cc1ccc(S(=O)(=O)N/N=C/c2oc(-c3ccncc3)c(-c3ccncc3)c2[N+](=O)[O-])cc1 | > 15.5 | > 15.5 | – |
| OCC1OC(NC(=S)NCSCCC(F)(F)C(F)(F)C(F)(F)C(F)(F)C(F)(F)C(F)(F)F)C(O)C(O)C1O (stereo unspecified) | > 200 | 7.24 | – |
| CCOC(=O)C1=C(O)c2c(sc(C)c2-c2ccccc2)N(S(=O)(=O)c2ccc(C)cc2)CC1 | > 100 | 4.79 | – |

| Structure (SMILES) | EC50 [µM] | IC50 [µM] | outcome |
| --- | --- | --- | --- |
| Fc1ccc(F)c(C2SCc3nc4ccccc4n32)c1 (stereo unspecified) | – | – | inactive |
| CCC(c1ccc(Cl)cc1)N1CCC2(CC1)C(=O)NCN2c1ccccc1 (stereo unspecified) | > 200 | > 200 | – |
| CCOC(=O)C1=C(O)C(=O)c2ccoc2C1=O | > 79.4 | > 79.4 | – |
| Cc1nnc(N)nc1C/C=C/C(Sc1ccc(Cl)cc1)c1ccccc1 (stereo unspecified) | > 9.77 | 3.98 | – |
| O=C(NCCNCCNCCNC(=O)c1cc(-c2ccccc2)nc2ccccc12)c1cc(-c2ccccc2)nc2ccccc12 | > 20 | 3.31 | – |
| CC(=O)/C(C)=N/NC(=O)c1ccccc1O | > 4.79 | > 4.79 | – |
| CCOC(=O)c1c(N)sc2c1C(C)(C(=O)OCC)CC2 (stereo unspecified) | > 200 | 141 | – |
| CCN1CCC(O)(/C=C/c2ccc(C)cc2C)C(C(=O)/C=C/c2ccc(C)cc2C)C1 (stereo unspecified) | > 200 | 3.24 | – |
| CCNC(=O)Cc1nc2c(N)ncnc2n1C1OC(CO)C(O)C1O (stereo unspecified) | > 200 | 81.3 | – |
| CCOC(=O)C(=O)Nc1c(F)cc(F)cc1Br | > 813 | > 813 | – |
| CC1(C)CCCCCC(O)C(O)CCC(C)(C)C1=O (stereo unspecified) | > 200 | > 200 | – |
| COC1C=CC(O)C(CO)O1 (stereo unspecified) | – | – | inactive |
| c1ccc(-c2[o+]c(-c3ccccc3)c(-c3ccccc3)c(-c3ccccc3)c2-c2ccccc2)cc1 | – | – | inactive |
| O=S(Nc1ccccc1)c1ccccc1Oc1ccccc1 (stereo unspecified) | – | – | inactive |
| COc1cccc(N(CN2CC=CC2=O)C(C)=O)c1 | – | – | inactive |
| CCN(CC)C(=S)N/N=C(/c1ccccc1)c1ccccn1 | > 200 | 1.51 | – |
| COC(=O)C1=C2CCC(=O)[C@@]2(C)CC(C)=C(C)C1 | – | – | inactive |
| O=C(NNCC(F)(F)F)c1ccncc1 | > 200 | 30.2 | – |
| Cn1c(=O)c2[nH]c(Nc3ccccc3)nc2n(C)c1=O | > 200 | 120 | – |
| CCOC(=O)CCC(NC(=O)c1ccc(N2CCN(c3c(C)nc(N)nc3N)CC2)cc1)C(=O)OCC (stereo unspecified) | > 0.2 | 0.0427 | – |
| Cc1cccc2c1Oc1cc(Cl)ccc1C2NC(=O)CN(C)C (stereo unspecified) | > 77.6 | 72.4 | – |
| CCOC(=O)C1(C(C)C)OC2CCCCCN2C1=O (stereo unspecified) | > 589 | > 589 | – |
| O=c1[nH]c(=O)ss1 | > 105 | > 100 | – |

| Structure (SMILES) | EC50 [µM] | IC50 [µM] | outcome |
| --- | --- | --- | --- |
| CN(C)CC/C=C1/c2ccccc2Sc2ccc(Cl)cc21 | > 200 | 27.5 | – |
| CCCO/N=[N+](\[O-])N(CC)CC | > 8910 | > 8910 | – |
| CCOC(=O)C1Cc2[nH]c3ccccc3c2C(C)C1C (stereo unspecified) | > 95.5 | 49 | – |
| O=C(Nc1ccn(C2CC(I)C(COC(c3ccccc3)(c3ccccc3)c3ccccc3)O2)c(=O)n1)c1ccccc1 (stereo unspecified) | > 200 | 7.59 | – |
| CCN1C[C@]2(COC)CCC(OC(=O)c3ccc(OC)cc3)C34[C@@H]5C[C@@H]6C(OC(C)=O)[C@@H]5[C@](OC(C)=O)(C[C@@H]6OC)[C@@H](C(OC)[C@@H]32)[C@H]14 (stereo partly specified) | – | – | inactive |
| CC(C)C[CH2][Ge]([CH2]CC(C)C)([CH2]CC(C)C)[CH2]CC(C)C | > 200 | > 200 | – |
| Cc1ccc2c3c(c(C)nc2c1)C(=O)c1ccccc1-3 | > 10.5 | > 10.5 | – |
| OC(c1ccccc1)c1cccc(C(O)c2ccccc2)c1 (stereo unspecified) | > 123 | > 123 | – |
| COc1ccc(-c2coc3cc(O)ccc3c2=O)cc1 | > 200 | > 100 | – |
| N#CC(F)(F)C(F)(F)C(F)(F)C(F)(F)C(F)(F)C(F)(F)C(F)(F)F | > 200 | > 200 | – |
| [N-]=[N+]=NC1CC(n2cc(Cc3ccccc3)c(=O)[nH]c2=O)OC1COC(=O)CCC(=O)O (stereo unspecified) | > 562 | > 562 | – |
| CC(C)C(=O)N1Cc2cc(Cl)cc(Cl)c2OC(=O)c2ccccc21 | > 29.5 | 3.02 | – |
| CC12C=NNC1(C)C(=O)C1(C)CN=NC1(C)C2=O (stereo unspecified) | > 200 | > 200 | – |
| CSc1c(C#N)c2n(c3ccccc3[n+]2C)c2ncccc12 | > 200 | 3.31 | – |
| CCOC(=O)c1nc(-c2ccccc2)c(-c2ccccc2)c(-c2ccccc2)c1C | > 5.13 | > 5.13 | – |
| CCOC(=O)c1cc(-c2ccc(Cl)cc2)c([N+](=O)[O-])n1C | > 200 | 26.9 | – |
| CCOC(=O)C(=CNC(=S)Nc1cc(C)ccc1C)C(=O)OCC | > 200 | > 200 | – |
| CC(C)c1nc2c(c(=O)o1)CCS2 | > 182 | > 182 | – |
| C=CC(=O)NC(O)(C(=O)OCC)C(F)(F)F (stereo unspecified) | > 200 | > 200 | – |
| CN(C)N1C(=O)c2c(Cl)c(Cl)c(Cl)c(Cl)c2C1=O | > 200 | 91.2 | – |
